Reference: the PolyMetriX glass transition set
± gives the standard deviation of the reports.

| Structure (SMILES) | glass transition temperature [°C] |
| --- | --- |
| *Oc1ccc(CC(NC(=O)CCc2ccc(OC(=O)CCCCCCCCC(*)=O)cc2)C(=O)OC)cc1 (repeat unit) | 47.00 |
| *N=P(*)(C)CCCC (repeat unit) | -51.00 |
| *CCCCCC(=O)N* (repeat unit) [Poly(6-aminohexanoic acid)] | 55.73 ± 5.6 |
| *CCC[Si](*)(C)C[Si](C)(C)C (repeat unit) | -51.00 |
| *Cc1cc(C23CC4CC(CC(C4)C2)C3)cc(CN(*)c2ccccc2)c1O (repeat unit) | 109.40 |
| *CCN(*)C(=O)c1ccc(F)cc1F (repeat unit) | 108.00 |
| *CC(*)n1cc2ccccc2n1 (repeat unit) | 41.50 |
| *CC(*)(C)C(=O)OCCCCOc1ccc(OC(=O)c2ccc(OCCCC)cc2)cc1 (repeat unit) | 51.00 |
| *Oc1ccc(C2(c3ccc(OC(*)=O)cc3)CC3CC2C2CCCC32)cc1 (repeat unit) | 251.50 |
| *c1ccc(-c2ccc(-c3ccc([Si](*)(CCCC)CCCC)s3)s2)s1 (repeat unit) | 30.00 |
| *Oc1ccc(CC(NC(=O)CCc2ccc(OC(=O)CCCCCCC(*)=O)cc2)C(=O)OCCCC)cc1 (repeat unit) | 37.00 |
| *c1cccc(P(=O)(c2ccccc2)c2cccc(-n3c(=O)c4c(-c5ccccc5)c5c(=O)n(*)c(=O)c5c(-c5ccccc5)c4c3=O)c2)c1 (repeat unit) | 342.00 |
| *Oc1ccc(-c2ccc(/N=N/c3ccc(C(*)=O)cc3)cc2)cc1 (repeat unit) | 147.00 |
| */C(C#N)=C/c1cc(OCCCCCCCC)c(/C=C(\C#N)c2cc(OCCCCCCCC)c(*)cc2OC)cc1OC (repeat unit) | 174.00 |
| *CC(*)c1ccncc1 (repeat unit) [Poly(p-vinyl pyridine) ] | 142 ± 5.4 |
| *CC(*)(C)OC (repeat unit) | 67.00 |
| *CCCC(C)(C)CNC(=O)CCCCCC(=O)N* (repeat unit) | 70.50 |
| *CCCCCCOC(=O)C(CCCCCCCCCCP(=O)(OCC)OCC)C(=O)OCCCCCCOc1ccc(-n2on2-c2ccc(O*)cc2)cc1 (repeat unit) | 9.00 |
| *Oc1ccc(/C=N/c2ccc(/N=C/c3ccc(Oc4ccc(C(c5ccccc5)(c5ccccc5)c5ccc(*)cc5)cc4)cc3)cc2)cc1 (repeat unit) | 230.00 |
| *CC(*)CO (repeat unit) | 36.00 |
| *CC(*)C(=O)OCCOC(=O)c1cc([N+](=O)[O-])cc([N+](=O)[O-])c1 (repeat unit) | 60.80 |
| *Oc1ccc(CC(NC(=O)CCc2ccc(OC(=O)CCCCCCC(*)=O)cc2)C(=O)OC)cc1 (repeat unit) | 55.50 |

Other lines, results leading:

| glass transition temperature [°C] | Structure (SMILES) |
| --- | --- |
| -7.00 | *ON(C(F)(F)F)C(F)(F)/C(F)=C(\F)C(*)(F)F (repeat unit) |
| 347.50 | *c1ccc(C(=O)Nc2ccc(NC(=O)c3ccc(Oc4ccc(-c5nn(*)c(=O)c6ccccc56)c5ccccc45)cc3)cc2)cc1 (repeat unit) |
| 430.00 | *c1ccc(C(c2ccc(N3C(=O)c4cc5c(cc4C3=O)C(C(F)(F)F)(C(F)(F)F)c3cc4c(cc3O5)C(=O)N(*)C4=O)cc2)(C(F)(F)F)C(F)(F)F)cc1 (repeat unit) |
| 118.00 | *CCCCCC(=O)Oc1ccc(-c2ccc(OC(=O)c3ccc4c(c3)C(=O)N(*)C4=O)cc2)cc1 (repeat unit) |
| 281.00 | *c1ccc(C(=O)c2ccc(-n3nc(-c4ccc(Sc5ccc(-c6nn(*)c(=O)c7ccccc67)cc5)cc4)c4ccccc4c3=O)cc2)cc1 (repeat unit) |
| 373.00 | *c1ccc(-c2ccc(-n3c(=O)c4cc5c(=O)n(*)c(=O)c5c(C(F)(F)F)c4c3=O)cc2C)c(C)c1 (repeat unit) |
| 200.00 | *c1ccc(Oc2ccc(-c3ccc(Oc4ccc(N5C(=O)c6ccc(Oc7cccc(Oc8ccc9c(c8)C(=O)N(*)C9=O)c7)cc6C5=O)cc4)cc3)cc2)cc1 (repeat unit) |
| 152.00 | *Oc1ccc(Oc2ccc(C(=O)c3ccc(C(=O)c4ccc(*)cc4)cc3)cc2)cc1 (repeat unit) |
| 91.50 | *CCCCCCCCCCN1C(=O)c2ccc(Oc3ccc4c(c3)C(=O)N(*)C4=O)cc2C1=O (repeat unit) |
| 65.00 | *CC(COc1ccc(C(C)(C)c2ccc(O*)cc2)cc1)OC(=O)CCl (repeat unit) |
| 308.00 | *c1c(C)cc(-c2cc(C)c(N3C(=O)c4ccc(Oc5cc6ccccc6cc5Oc5ccc6c(c5)C(=O)N(*)C6=O)cc4C3=O)c(C)c2)cc1C (repeat unit) |
| 60.00 | *CCCCCCCCCCOc1ccc(/C=C2\CCC/C(=C\c3ccc(O*)c(OC)c3)C2=O)cc1OC (repeat unit) |
| 391.50 | *c1ccc(-c2nc3cc(-c4ccc5nc(*)c(-c6ccccc6)nc5c4)ccc3nc2-c2ccccc2)cc1 (repeat unit) |
| 204.00 | *Cc1ccc(CNC(=O)c2cc(C(=O)N*)cc(C(C)(C)C)c2)cc1 (repeat unit) |
| 213.00 | *CCN(CCN1C(=O)c2ccc(C(c3ccc4c(c3)C(=O)N(*)C4=O)(C(F)(F)F)C(F)(F)F)cc2C1=O)c1ccc(/N=N/c2ccc(C#N)cc2)cc1 (repeat unit) |
| 327.00 | *Nc1ccc(NC(=O)c2cc(NC(=O)c3ccncc3)cc(C(*)=O)c2)cc1 (repeat unit) |
| 243.00 | *c1ccc(Oc2ccc(-n3nccc3-c3ccc(-c4ccnn4*)cc3)cc2)cc1 (repeat unit) |
| 313.00 | *c1ccc(OC(=O)c2cc(Cl)cc(C(=O)Oc3ccc(C4(*)OC(=O)c5ccccc54)cc3)c2)cc1 (repeat unit) |
| 154.00 | *C(=O)Nc1cccc(Oc2ccc(C(=O)c3ccc(Oc4cccc(NC(=O)c5ccc(*)nc5)c4)cc3)cc2)c1 (repeat unit) |
| 299.00 | *c1ccc2c(c1)C(=O)N(c1ccc(Oc3ccc(N4C(=O)c5ccc(C(*)(C(F)(F)F)C(F)(F)F)cc5C4=O)cc3Br)c(Br)c1)C2=O (repeat unit) |
| 162 | *c1ccc(Oc2ccc(C(C)(C)c3ccc(Oc4ccc(S(*)(=O)=O)cc4)cc3)cc2)s1 (repeat unit) |
| 30.00 | *CC(*)C(=O)OCCCCCOC(=O)c1ccc(OC(=O)c2ccc(C#N)cc2)cc1 (repeat unit) |
| 168.00 | *Nc1cc(NC(=O)Nc2ccc(Cc3ccc(NC(*)=O)cc3)cc2)cc(C(=O)Nc2ccc3c(c2)C(=O)c2ccccc2C3=O)c1 (repeat unit) |
| 227.00 | *Oc1ccc(C(=O)Nc2ccc(C(c3ccc(NC(=O)c4ccc(OC(=O)c5cccc(C(*)=O)c5)cc4)cc3)(C(F)(F)F)C(F)(F)F)cc2)cc1 (repeat unit) |
| 373.00 | *c1ccc(-c2ccc(-n3c(=O)c4cc5c(=O)n(*)c(=O)c5c(C(F)(F)F)c4c3=O)cc2C(F)(F)F)c(C(F)(F)F)c1 (repeat unit) |
| 203.00 | *c1ccc(Oc2ccc(Oc3ccc(Oc4ccc(-c5nc(*)nc(-c6ccccc6)n5)cc4)cc3)cc2)cc1 (repeat unit) |
